# Laboratory results from patent US3974187A, “Synthetic analogs having the activity of naturally occurring forms of coenzyme Q” (priority 1975, dated 1976).
# How the values were obtained:
# [1] = test system: succinoxidase system of beef heart mitochondria; test: CoQ activity: restoring succinoxidase activity of pentane-extracted beef heart mitochondria (manometric); type: biochemical; set-up: key to CoQ10 Act. Index: activity index relative to CoQ10 standard; conditions: for Activation at 400 nMoles %: 400 nmoles of analog, relative to the response to 400 nmoles CoQ10; for Maximum Activation: 400 nm of analog per flask, percent of the response to CoQ4; for CoQ10 Act. Index: calculated from relative effectiveness, activity in terms of that of CoQ10; for effectiveness / utilization in the succinoxidase mitochondrial system / ability to elicit maximum activation of succinoxidase: interpretation of Table II; for Estimated nMoles Required for 50% Activation: level required to reinstate approximately 50% of maximum succinoxidase activity, 0.65-0.85 mg PEBHM; for Relative Effectiveness: molar amounts of analog and CoQ4 required to restore the same level of succinoxidase to PEBHM, relative to CoQ4
# Method: The CoQ activity of each analog was assessed by examining the ability of the analog to stimulate the succinoxidase activity of beef-heart mitochondria (BHM) from which the naturally occurring CoQ had been removed by pentane extraction. (Table I) Beef heart mitochondria were prepared by the method of Smith (Methods Enzymol., 10, 81 (1967). The pentane extraction was conducted as described by Szarkowska (Arch. Biochem. Biophys., 113, 519 (1966); PEBHM was frozen and used within 10 days of preparation, since pentane extraction decreases the stability of BHM. Succinoxidase activity was determined manometercally, using a Gilson differential respirometer (Iwamoto, Y., Hansen, I. L., Porter, T. H., and Folkers, K., Biochem. Biophys. Res. Comm., 58, 633 (1974), and is reported as […] of oxygen per minute per milligram of protein. A commercial soybean phospholipid preparation (Asolectin), dispersed by sonication (Fleischer, S. and Fleischer, B., Methods Enzymol., 10, 421 (1967), was used to provide phospholipid micelles, and test substances were added as solutions in ethanol. Within Table I are listed the CoQ activities of the analogs and selected reference compounds. The CoQ10 Activity Index is a measure of the effectiveness of the analogs, relative to the standard, in stimulating a submaximal response of succinoxidase activity. Specific activity of the succinoxidase system in response to stimulation by exogenous CoQ10 is given in footnote a of the Table. The quantity of analog to be added was chosen to provide a level of succinoxidase activity corresponding to the nearly linear portion of the activity: dose curve, in which succinoxidase activity stimulated is approximately proportional to the level of analog used. The second column lists the nanomolar quantity of analog required to provide a stimulation of about half of the maximum response. The relative response of the succinoxidase system to 400 nmol of each analog is listed in the third column of the Table. This level of analog is sufficient to insure significant excess over the stoichiometric amount, and maximum response to CoQ4 is obtained at one-tenth to one-twentieth of this dose level. The response to 400 nmol of CoQ10 is lower than is the response to other components listed. The very long side-chain of CoQ10, the natural coenzyme, may hinder the transport of exogenous CoQ10 to the active site.
# Chemical stability = type: physicochemical; conditions: compared with CoQ1 and CoQ2
# complex III = complex III (Bos taurus, UniProt P00157+P13272); test: Reduction of cytochrome c by reduced CoQ and analogs catalyzed by complex III; type: biochemical; conditions: for nMoles Cytochrome c Reduced/min / Non-enzymatic Rate of Cytochrome c Reduction: 10 μM reduced CoQ or analog; for nMoles Cytochrome c Reduced/min: 2 μg complex III, 8 μM cytochrome c; for Non-enzymatic Rate of Cytochrome c Reduction: blank without complex III; for % Inhibition by Antimycin A: antimycin A 1 μg/ml
# Method: Reduction of cytochrome c was measured at 550-540 nm. The reaction mixtur
# contained in 1.0 ml: […] KP1, pH 7.5; 0.05 mM EDTA; 8 μM
# cytochrome c1; 10 μM reduced CoQ or analog and 2 μg complex
# III. When indicated, antimycin A was added to the assay medium at 1
# μg/ml. An extinction coefficient of 19 mM^-^1 was used for […]
# [2] = test system: oxidative phosphorylation at site I (ETPH particles); test: Assay of CoQ and analogs for oxidative phosphorylation at site I with ETPH particles; type: biochemical; set-up: Δ NADH / Δ G6P: unit not given here; conditions: for P/NADH Ratio / Δ G6P / Δ NADH / μmoles NADH /min/mg / μmoles NADH min/mg +Rotenone / % Inhibition by Rotenone: CoQ or analog 0.12 nM (footnote 0.12 mM); for μmoles NADH /min/mg: 200 μg ETPH particles, no rotenone; for μmoles NADH min/mg +Rotenone / % Inhibition by Rotenone: rotenone 2 μM
# Method: Assays were performed with 200 μg of ETPH particles as described by
# Schatz and Racker (J. Biol. Chem., 241, 1429 (1966)). The concentration o
# the CoQ compounds was 0.12 mM. Rotenone was added at 2 μM
# [3] = literature / general knowledge; cited from earlier work
Structure (SMILES),Activation at 400 nMoles % [1] [%],Maximum Activation [1] [%],CoQ10 Act. Index [1],Estimated nMoles Required for 50% Activation [1] [nmol],Relative Effectiveness [1] [%],also measured
"CCCCCC1=C(C)C(=O)C(OC)=C(OC)C1=O [Pentyl, 2,3-Dimethoxy-5-methyl-6-pentyl-1,4-benzoquinone]",110,86,1.2,35.1,5.7,effectiveness / utilization in the succinoxidase mitochondrial system [1]: about as little effective as coenzyme Q10 itself; chemical stability (Chemical stability; listed as 6-n-pentyl): superior to CoQ1 and CoQ2 in chemical stability; chemical stability (Chemical stability; listed as PB): apparent greater stability; nMoles Cytochrome c Reduced/min (complex III): 14.6 nmol/min; Non-enzymatic Rate of Cytochrome c Reduction (complex III): 0.2 nmol/min; response of complex III system to the reduced analog as substrate (complex III; after reduction and extraction): excellent substrates; % Inhibition by Antimycin A (complex III): 100%; P/NADH Ratio [2]: 0.44; Δ G6P [2]: 0.036; Δ NADH [2]: 0.082; μmoles NADH /min/mg [2]: 0.47 μmoles NADH /min/mg; μmoles NADH min/mg +Rotenone [2]: 0.02 μmoles NADH min/mg; biochemical effectiveness in the site I assay system ([2]; compared with CoQ1): as biochemically effective as CoQ1; % Inhibition by Rotenone [2]: 95%
"COC1=C(OC)C(=O)C(C/C=C(\C)CCC=C(C)C)=C(C)C1=O [Q2, reference compound]",,,,,,nMoles Cytochrome c Reduced/min (complex III): 27.4 nmol/min; Non-enzymatic Rate of Cytochrome c Reduction (complex III): 0.2 nmol/min; % Inhibition by Antimycin A (complex III): 98%; chemical stability of isoprenoid quinones [3]: relative chemical instability; P/NADH Ratio [2]: 0.57; Δ G6P [2]: 0.045; Δ NADH [2]: 0.079; μmoles NADH /min/mg [2]: 0.25 μmoles NADH /min/mg; μmoles NADH min/mg +Rotenone [2]: 0.02 μmoles NADH min/mg; % Inhibition by Rotenone [2]: 92%
"CCCCCC=CCC=CCCCCCCCCCC1=C(C)C(=O)C(OC)=C(OC)C1=O [10', 13'-Nonadecadienyl]",123,96,7.3,5.7,35,
"COC1=C(OC)C(=O)C(C/C=C(\C)CC/C=C(\C)CC/C=C(\C)CC/C=C(\C)CC/C=C(\C)CC/C=C(\C)CCC=C(C)C)=C(C)C1=O [CoQ7, reference compound]",115,90,1.7,24.4,8.2,
CCCCCCC=CCCCCCCCC1=C(C)C(=O)C(OC)=C(OC)C1=O [8'-Pentadecenyl],119,93,11.1,3.4,58,
"CCCCCCCCC=CCCCCCCCCCC1=C(C)C(=O)C(OC)=C(OC)C1=O [10'-Nonadecenyl, 2,3-Dimethoxy-5-methyl-6-(10'-nonadecenyl)-1,4-benzoquinone]",123,96,5.8,7.1,28,
"COC1=C(OC)C(=O)C(C/C=C(\C)CC/C=C(\C)CC/C=C(\C)CCC=C(C)C)=C(C)C1=O [CoQ4, reference compound]",128,100,20.8,2.0,100,"amount giving full restoration of activity of succinoxidase in PEBHM [1]: more than 20 nmoles; maximum activity of succinoxidase in PEBHM ([1]; full restoration, more than 20 nmoles of CoQ4): 0.700 μatm O2 /mg protein min; ability to elicit maximum activation of succinoxidase [1]: can elicit maximum activation; effectiveness / utilization in the succinoxidase mitochondrial system [1]: effectively utilized"
"CCCCCC=CCC=CCCCCCCCC1=C(C)C(=O)C(OC)=C(OC)C1=O [8', 11'-Heptadecadienyl, 2,3-Dimethoxy-5-methyl-6-(8',11'-heptadecadienyl)-1,4-benzoquinone]",122,95,9.0,4.7,43,
"CCCCCCCCC=CCCCCCCCC1=C(C)C(=O)C(OC)=C(OC)C1=O [8'-Heptadecenyl, 2,3-Dimethoxy-5-methyl-6-(8'-heptadecenyl)-1,4-benzoquinone]",121,94,5.8,7.1,28,
CC(C)=CCC/C(C)=C/CC/C(C)=C/CC1=CC(=O)C(C)=C(C)C1=O [plastoquinone-3],,,,,,chemical stability of isoprenoid quinones [3]: extremely unstable
"CCCCCCCCCCCCCCCCCCCCC1=C(C)C(=O)C(OC)=C(OC)C1=O [Eicosyl, 2,3-Dimethoxy-5-methyl-6-n-eicosyl-1,4-benzoquinone]",79,62,0.9,44.4,4.5,ability to elicit maximum activation of succinoxidase [1]: cannot stimulate maximum activation
"COC1=C(OC)C(=O)C(CC=C(C)C)=C(C)C1=O [Q1, reference compound]",,,,,,nMoles Cytochrome c Reduced/min (complex III): 12.4 nmol/min; Non-enzymatic Rate of Cytochrome c Reduction (complex III): 0.6 nmol/min; % Inhibition by Antimycin A (complex III): 100%; chemical stability of isoprenoid quinones [3]: relative chemical instability; P/NADH Ratio [2]: 0.522; Δ G6P [2]: 0.046; Δ NADH [2]: 0.088; μmoles NADH /min/mg [2]: 0.45 μmoles NADH /min/mg; μmoles NADH min/mg +Rotenone [2]: 0.03 μmoles NADH min/mg; % Inhibition by Rotenone [2]: 93%
"CCCCCC=CCC=CCC=CCC=CCCCC1=C(C)C(=O)C(OC)=C(OC)C1=O [4', 7', 10', 13'-Nonadecatetraenyl, 2,3-Dimethoxy-5-methyl-6-(4',7',10',13'-nonadecatetraenyl)-1,4-benzoquinone]",118,92,7.7,5.4,37,
"CCC=CCC=CCC=CCCCCCCCCCC1=C(C)C(=O)C(OC)=C(OC)C1=O [10', 13', 16'-Nonadecatrienyl, 2,3-Dimethoxy-5-methyl-6-(10',13' ,16'-nonadecatrienyl)-1,4-benzoquinone]",128,100,10.2,4.1,49,
"CCC=CCC=CCC=CCCCCCCCC1=C(C)C(=O)C(OC)=C(OC)C1=O [8', 11', 14'-Heptadecatrienyl, 2,3 -Dimethoxy-5-methyl-6-(8',11',14'-heptadecatrienyl)-1,4-benzoquinone]",123,96,12.5,3.3,60,
